The source of these data is patent US10294302B2, “Therapeutic method and medicament for HTLV-1 associated myelopathy” (priority 2012, dated 2019).

Series [1] concerns HTLV-1 proviral DNA in PBMCs derived from asymptomatic HTLV-1 carriers (ACs). The series can be described thus: Amount of HTLV-1 proviral DNA in PBMCs by real time-PCR (asymptomatic carriers). The class given is cell-based. The settings on record: 1 μg/mL; 7 days; AC N=8, FIG. 2F. The procedure: The amount of HTLV-1 proviral DNA was quantified in accordance with the method described in Yamano et al (Blood, 2002; 99: 88-94) and Nagai et al (J. Infectious Diseases; 2001; 183: 197-205).
At 7 days after cultivation, cells were recovered from each well, and the recovered cells were suspended in a buffer containing 50 mM Tris-HCl (pH 8.0), 20 mM EDTA, 0.1 M NaCl and 1% SDS (hereinafter, referred to as lysis buffer), and then 150 μg/mL of proteinase K (manufactured by Wako Pure Chemical Industries, Ltd.) was added thereto, followed by shaking at 55° C. overnight. Then, genomic DNAs were extracted from PBMCs of HAM patients using phenol/chloroform.
(§1) Real time-polymerase chain reaction (hereinafter, abbreviated to PCR) was performed using the extracted genomic DNA as a template, and TaqMan probes for HTLV-1 pX region and human β-actin, and a primer set of each gene.
As a standard sample of HTLV-1 pX, a genomic DNA derived from HTLV-1 infected rat TARL2 cell line where 1 copy/cell of HTLV-1 pX region was integrated was used, and as a standard sample of β-actin, a genomic DNA derived from PBMC of a normal person was used to perform PCR at the same time and to obtain a standard curve. The copy numbers of pX and β-actin of each sample were calculated using the standard curve, and the amount of HTLV-1 proviral DNA was determined by the following Equation (FIGS. 2A and 2B). […]

The conditions of series [2]: cited from earlier work.
In series [3] the test system is IFN-γ production in PBMCs of HAM patients. Put plainly: IFN-γ production in PBMC culture supernatant (Cytometric Bead Array). The note with it: 7 days culture; combination: 0.1 μg/mL PSL+0.01 μg/mL-10 μg/mL KM2760 versus KM2760 alone. The class given is cell-based, human. The procedure:
(§2) In order to examine the inhibitory effect of anti-human CCR4 antibody and adrenocorticosteroid drug on inflammatory cytokine production in PBMCs of HAM patients, PBMCs of HAM patients were cultured, and the concentrations of IFN-γ, TNF-α, IL-2, IL-6 and IL-10 in the culture supernatants were measured.
(§3) PBMCs of HAM patients were cultured for 7 days in the same manner as in Example 2, and the culture supernatants were recovered after cultivation. The concentrations of the cytokines were measured using kits for measuring cytokine concentrations (all manufactured by BD Biosciences), Human IFNγ Flex kit (cat. 560111), Human TNFα Flex kit (cat. 560122), Human IL-6 Flex kit (cat. 558276), Human IL-2 Flex kit (cat. 558270) and Human IL-10 Flex kit (cat. 558274) by BD™ Cytometric Bead Array (CBA) (FIGS. 4A, 4B, 5A, 5B, 6A, 6B, 7A, 7B, 8A and 8B).
(§4) Inhibitory effects of anti-human CCR4 chimeric antibody KM2760 and anti-human CCR4 humanized antibody Poteligeo® (manufactured by Kyowa Hakko Kirin co., Ltd.) on spontaneous cell proliferation, the amount of HTLV-1 provirus DNA, and the cytokine production in PBMCs of HAM patients (N=11) were examined in the same manner as in Examples 1, 2, and 4.

Series [4] relates to PBMCs derived from HAM patients. Put plainly: Actual number of cells after cultivation of PBMCs. Type of series: cell-based, human. The settings on record: 1 μg/mL; 7 days after cultivation; FIG. 1C. The procedure:
In the same manner, PBMCs derived from HAM patients were cultured by addition of 1×10^−6 μg/mL-10 μg/mL of KM2760, and at 7 days after cultivation, the actual number of cells was counted (FIG. 1C).

Series [5] shares this test system. The series can be described thus: Spontaneous cell proliferation of PBMCs by 3H-thymidine up-take. The settings on record: for cell proliferation compared to non-drug treatment: Example 3, FIGS. 3A and 3B. Type of series: cell-based, human.
Description: PBMCs of HAM patients and asymptomatic HTLV-1 carriers (AC) were isolated from peripheral bloods that were collected from 9 HAM patients and 8 asymptomatic HTLV-1 carriers by Ficoll density gradient centrifugation, and frozen and stored in liquid nitrogen until assay. The isolated PBMCs were suspended in an RPMI1640 medium containing 10% fetal bovine serum (hereinafter, abbreviated to FBS), 1% penicillin and 1% streptomycin (manufactured by Wako Pure Chemical Industries, Ltd.) (hereinafter, abbreviated to RPMI medium) without proliferation stimulation, and seeded at a density of 1×10^5 cells/100 μL/well in a 96-well round bottom plate. A well added with 1 μg/mL of prednisolone (PSL) was prepared as a positive control, and wells added with 0-10 μg/mL of anti-human CCR4 chimeric antibody KM2760 were prepared as a subject antibody. Cultivation was performed under the conditions of 37° C. and 5% CO2 for 6 days.
After cultivation, 1 μCi ^3H-thymidine was added to each well, and further cultured for 16 hours. After cultivation, the cells were recovered, and specific radioactivity was measured using a liquid scintillation counter (Micro Beta) to determine cell proliferation rate (%) (FIGS. 1A, 1B). The up-take of ^3H-thymidine in the non-drug-treated well was taken as 100%, and the ratio was determined.
In the same manner as in Example 1, PBMCs isolated from the peripheral blood of HAM patient were seeded in a 96-well bottom plate. A well added with 0.1 or 1 μg/mL of prednisolone and wells added with 0.1 μg/mL prednisolone+0.01-10 μg/mL of anti-human CCR4 chimeric antibody KM2760 were prepared to perform cultivation.
For cell proliferation assay by ^3H-thymidine up-take, ^3H-thymidine was added at 6 days after cultivation in the same manner as in Example 1, and further cultured for 16 hours. Further, the amount of HTLV-1 proviral DNA was determined at 7 days after cultivation in the same manner as in Example 2.
(§5) In all assays, the proliferation rate (FIGS. 3A and 3B) or the amount of HTLV-1 proviral DNA (FIGS. 3C and 3D) was represented as a percentage, when the well treated with no drug was taken as 100%.
as §4

Series [6] has as its system IL-2 production in PBMCs of HAM patients. Put plainly: IL-2 production in PBMC culture supernatant (Cytometric Bead Array). Type of series: cell-based, human. The settings on record: 7 days culture; combination: 0.1 μg/mL PSL+0.01 μg/mL-10 μg/mL KM2760 versus KM2760 alone. Here is the method:
as §2, §3, §4

Series [7] concerns HTLV-1 proviral DNA in PBMCs derived from HAM patients. Put plainly: Amount of HTLV-1 proviral DNA in PBMCs by real time-PCR. The class given is cell-based. Here is the method: Then, genomic DNAs were extracted from PBMCs of HAM patients using phenol/chloroform.
as §1
As a standard sample of HTLV-1 pX, a genomic DNA derived from HTLV-1 infected rat TARL2 cell line where 1 copy/cell of HTLV-1 pX region was integrated was used, and as a standard sample of β-actin, a genomic DNA derived from PBMC of a normal person was used to perform PCR at the same time and to obtain a standard curve. The copy numbers of pX and β-actin of each sample were calculated using the standard curve, and the amount of HTLV-1 proviral DNA was determined by the following Equation (FIGS. 2A and 2B). Amount of HTLV-1 proviral DNA: copy number of HTLV-1(pX)/100 PBMC cells=(copy number of pX)/(copy number of β-actin/2)×100
Cultivation was performed in the same manner, and the absolute amount of the HTLV-1 proviral DNA per well was determined (FIGS. 2C and 2D).
In the same manner as above, 1×10^−6 μg/mL-10 μg/mL of KM2760 were added to culture PBMCs derived from HAM patients, and at 7 days after cultivation, the amounts of HTLV-1 proviral DNA were determined (FIG. 2E).
as §5

Series [8] deals with IL-6 production in PBMCs of HAM patients. Put plainly: IL-6 production in PBMC culture supernatant (Cytometric Bead Array). The class given is cell-based, human. The settings on record: 7 days culture; combination: 0.1 μg/mL PSL+0.01 μg/mL-10 μg/mL KM2760 versus KM2760 alone. The procedure: as §2, §3, §4
Series [9] relates to TNF-α production in PBMCs of HAM patients. The series can be described thus: TNF-α production in PBMC culture supernatant (Cytometric Bead Array). The class given is cell-based, human. The settings on record: 7 days culture; combination: 0.1 μg/mL PSL+0.01 μg/mL-10 μg/mL KM2760 versus KM2760 alone. Here is the method: as §2, §3, §4
In series [10] the test system is IL-10 production in PBMCs of HAM patients. Put plainly: IL-10 production in PBMC culture supernatant (Cytometric Bead Array). The class given is cell-based, human. The settings on record: 7 days culture; combination: 0.1 μg/mL PSL+0.01 μg/mL-10 μg/mL KM2760 versus KM2760 alone. Here is the method: as §2, §3, §4
Setting [11] is: PSL 1 μg/mL, antibody up to 10 μg/mL, 7 days, compared to non-drug treatment.

Like-named read-outs stand apart in the source and are kept apart here.

Take `C[C@]12C=CC(=O)C=C1CC[C@@H]1[C@@H]2[C@@H](O)C[C@@]2(C)[C@H]1CC[C@]2(O)C(=O)CO` [PSL, prednisolone]: the “effect on the amount of proviral DNA (in words)” value is “almost didn't reduce the amount of proviral DNA” in [1] and “almost didn't reduce the amount of proviral DNA” in series [7] (1 μg/mL, 7 days, FIG. 2E). For the same molecule, the values for the blood concentration entry in series [2] (oral administration of 50 mg to a clinical patient) and in [2] (oral administration of a low dose of 5 mg to a clinical patient) were “approximately 1 μg/mL” and “approximately 0.1 μg/mL”, respectively. The “inhibition of IFN-γ production (in words)” value in [3] is “inhibited the production of all cytokines”. Moreover, in series [4], the “number of cells compared to non-drug treatment” value is “approximately 50%”. Moreover, the “cell proliferation compared to non-drug treatment” value in [5] (0.1 μg/mL) is “approximately 70%”; in series [5] (1 μg/mL), roughly 50%. In addition, the inhibition at 1 µg/mL in [5] (Homo sapiens, PBMC, 1 μg/mL, 6 days + 16 h 3H-thymidine, 9 HAM patients, FIG. 1B, read-out: cell proliferation inhibition compared to non-drug treatment) was roughly 50%. In [6], the “inhibition of IL-2 production (in words)” value was “inhibited the production of all cytokines”. Moreover, the “absolute amount of HTLV-1 proviral DNA of each well compared to non-drug treatment” value in series [7] (1 μg/mL, Example 3, FIGS. 3E and 3F) was “approximately 50%”. The “absolute amount of HTLV-1 proviral DNA per well, fraction of non-drug treatment” value in series [7] (1 μg/mL, FIGS. 2C and 2D) is “⅓”. Moreover, the “effect on the amount of HTLV-1 proviral DNA (in words)” value in series [7] (0.1 or 1 μg/mL, Example 3) was “almost didn't reduce the amount of HTLV-1 proviral DNA”; in series [7] (setting [11]) it was “did not show the effect of reducing the amount of HTLV-1 proviral DNA”. Also, in [8], the “inhibition of IL-6 production (in words)” value was “inhibited the production of all cytokines”. In addition, in [9], the “inhibition of TNF-α production (in words)” value was “inhibited the production of all cytokines”.

B1: Mogamulizumab (antibody, chains of the INN, looked up, V domains shown)
VH: EVQLVESGGDLVQPGRSLRLSCAASGFIFSNYGMSWVRQAPGKGLEWVATISSASTYSYYPDSVKGRFTISRDNAKNSLYLQMNSLRVEDTALYYCGRHSDGNFAFGYWGQGTLVTVSS
VL: DVLMTQSPLSLPVTPGEPASISCRSSRNIVHINGDTYLEWYLQKPGQSPQLLIYKVSNRFSGVPDRFSGSGSGTDFTLKISRVEAEDVGVYYCFQGSLLPWTFGQGTKVEIK
notes: anti-human CCR4 humanized antibody, manufactured by Kyowa Hakko Kirin
As to B1, in series [3], the “inhibition of IFN-γ production (in words)” value is listed as “inhibited”. For the same molecule, the “inhibition of spontaneous cell proliferation (in words)” value in [5] (antibody 0-10 μg/mL, 3H-thymidine up-take) was “inhibited”. Besides, the “inhibition of IL-2 production (in words)” value in series [6] is reported as “inhibited”. Further, the “effect on the amount of HTLV-1 proviral DNA (in words)” value in series [7] (setting [11]) is listed as “inhibited”. The “inhibition of IL-10 production (in words)” value in [10] is listed as “inhibited”. The “inhibition of IL-6 production (in words)” value in series [8] is “inhibited”. Also, the “inhibition of TNF-α production (in words)” value in series [9] was “inhibited”.
